Holding throughout (assay): relative viability (nuclei count vs DMSO), 5 days (fraction); higher = more cells survive
One assay relates to EBC-1. The essentials: (§1)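 After 5 days of treatment, lung cancer cells in 1536-well plates were fixed and stained in a single step (final 0.05% Triton X-100, 1% formaldehyde, 1 ug/ml Hoechst) and their nuclei counted on 4× images. Treatment had been applied by pin tool the day after seeding as one drug alone or as a fixed anchor-drug dose with five library-drug doses (not always all listed) in √10 steps. Relative viability is the nuclei count of treated wells divided by that of vehicle wells, and values are medians of duplicate plates.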

The subject of another assay is A549. The essentials: as §1
A further assay relates to IA-LM. The essentials: as §1
A further assay concerns HARA. The essentials: as §1
The next assay concerns NCI-H1703. The essentials: as §1
A further assay deals with LXF-289. The essentials:
as §1

Another assay relates to Calu-6. The essentials:
as §1

Another assay deals with NCI-H1299. The essentials: as §1
The subject of the next assay is NCI-H650. The essentials: as §1
For another assay, the system named is NCI-H1623. The essentials:
as §1

For another assay, the system named is NCI-H1563. The essentials: as §1

We go through five compounds from the supplement of paper PMC10307832.

SMILES strings stand for the structures.

`Oc1nc(-c2ccc(C(F)(F)F)cc2)nc2c1CSCC2` [XAV939] + CC1(C)CCC(c2ccc(Cl)cc2)=C(CN2CCN(c3ccc(C(=O)NS(=O)(=O)c4ccc(N[C@H](CCN5CCOCC5)CSc5ccccc5)c(S(=O)(=O)C(F)(F)F)c4)cc3)CC2)C1 [Navitoclax] (partner 0.5 µM): the relative viability worked out at 0.489 in the assay with EBC-1 (first compound 0.08 µM); 0.413 with EBC-1 (first compound 0.253 µM); 0.404 in the assay with EBC-1 (first compound 0.8 µM); 0.447 in the assay with EBC-1 (first compound 2.53 µM); 1.49 in the assay with A549 (first compound 0.08 µM); 1.06 in the assay on A549 (first compound 0.253 µM). Besides, the relative viability with A549 (first compound 0.8 µM) was 1.12; in the assay with A549 (first compound 2.53 µM) it was 1.06; in the assay with IA-LM (first compound 0.08 µM), 0.89; in the assay with IA-LM (first compound 0.253 µM), 0.698; in the assay with IA-LM (first compound 0.8 µM), 0.781; in the assay with IA-LM (first compound 2.53 µM), 0.463. Further, the relative viability in the assay with HARA (first compound 0.08 µM) came out at 1.15; with HARA (first compound 0.253 µM) it was 0.609; in the assay on HARA (first compound 0.8 µM) it was 1.17; in the assay on HARA (first compound 2.53 µM), 1.17; in the assay with NCI-H1703 (first compound 0.08 µM) it was 1.33; with NCI-H1703 (first compound 0.253 µM) it was 1.35. In addition, the relative viability in the assay with NCI-H1703 (first compound 0.8 µM) came out at 0.89; in the assay with NCI-H1703 (first compound 2.53 µM) it was 0.844; with LXF-289 (first compound 0.08 µM), 0.92; in the assay with LXF-289 (first compound 0.253 µM) it was 0.911; with LXF-289 (first compound 0.8 µM), 0.949; with LXF-289 (first compound 2.53 µM) it was 0.972. Besides, the relative viability stood at 0.909 with Calu-6 (first compound 0.08 µM); 0.779 in the assay with Calu-6 (first compound 0.253 µM); 0.867 in the assay with Calu-6 (first compound 0.8 µM); 0.857 in the assay on Calu-6 (first compound 2.53 µM); 1.07 with NCI-H1299 (first compound 0.08 µM); 1.02 in the assay with NCI-H1299 (first compound 0.253 µM). For the same compound, the relative viability with NCI-H1299 (first compound 0.8 µM) amounted to 1.1; in the assay on NCI-H1299 (first compound 2.53 µM) it was 1.04.
On to `C=C1C(=O)O[C@@H](CCCCCCCC)[C@@H]1C(=O)O` [C-75] + Cc1nc(Nc2ncc(C(=O)Nc3c(C)cccc3Cl)s2)cc(N2CCN(CCO)CC2)n1 [Dasatinib] (partner 0.075 µM), for which the relative viability in the assay with HARA (first compound 0.08 µM) was 0.257; in the assay on HARA (first compound 0.253 µM) it was 0.241; in the assay on HARA (first compound 0.8 µM), 0.239; with HARA (first compound 2.53 µM), 0.178; with HARA (first compound 8 µM), 0.298; in the assay on LXF-289 (first compound 0.08 µM), 0.22. Further, the relative viability in the assay on LXF-289 (first compound 0.253 µM) stood at 0.137; with LXF-289 (first compound 0.8 µM) it was 0.26; with LXF-289 (first compound 2.53 µM) it was 0.163; in the assay on LXF-289 (first compound 8 µM), 0.22; with NCI-H650 (first compound 0.08 µM), 0.469; with NCI-H650 (first compound 0.253 µM), 0.328. The relative viability with NCI-H650 (first compound 0.8 µM) was 0.383; in the assay on NCI-H650 (first compound 2.53 µM), 0.358; in the assay on NCI-H650 (first compound 8 µM) it was 0.398; with NCI-H1623 (first compound 0.08 µM) it was 0.591; in the assay with NCI-H1623 (first compound 0.253 µM), 0.649; in the assay with NCI-H1623 (first compound 0.8 µM) it was 0.516. The relative viability in the assay on NCI-H1623 (first compound 2.53 µM) is 0.447; in the assay with NCI-H1623 (first compound 8 µM) it was 0.695; in the assay with NCI-H1563 (first compound 0.08 µM), 0.387; in the assay with NCI-H1563 (first compound 0.253 µM), 0.453; with NCI-H1563 (first compound 0.8 µM), 0.444; in the assay on NCI-H1563 (first compound 2.53 µM), 0.415. Besides, the relative viability in the assay with NCI-H1563 (first compound 8 µM) came out at 0.569.
As for `Oc1nc(-c2ccc(C(F)(F)F)cc2)nc2c1CSCC2` [XAV939] + Nc1nc2[nH]cc(CCc3ccc(C(=O)N[C@@H](CCC(=O)O)C(=O)O)cc3)c2c(=O)[nH]1 [Pemetrexed] (partner 0.2 µM), the relative viability came out at 0.255 in the assay on HARA (first compound 0.08 µM); 0.305 in the assay on HARA (first compound 0.253 µM); 0.252 in the assay with HARA (first compound 0.8 µM); 0.193 in the assay with HARA (first compound 2.53 µM); 0.886 in the assay on LXF-289 (first compound 0.08 µM); 0.916 with LXF-289 (first compound 0.253 µM). Moreover, the relative viability with LXF-289 (first compound 0.8 µM) amounted to 0.957; in the assay with LXF-289 (first compound 2.53 µM), 0.895; in the assay on NCI-H650 (first compound 0.08 µM), 0.973; with NCI-H650 (first compound 0.253 µM), 1; in the assay with NCI-H650 (first compound 0.8 µM), 0.96; in the assay with NCI-H650 (first compound 2.53 µM), 0.816. Besides, the relative viability amounted to 0.823 in the assay with NCI-H1563 (first compound 0.08 µM), 0.685 with NCI-H1563 (first compound 0.253 µM), 0.659 in the assay on NCI-H1563 (first compound 0.8 µM) and 0.47 in the assay with NCI-H1563 (first compound 2.53 µM).
Turning to `Oc1nc(-c2ccc(C(F)(F)F)cc2)nc2c1CSCC2` [XAV939] + NC(=O)Nc1cc(-c2cccc(F)c2)sc1C(=O)N[C@H]1CCCNC1 [AZD7762] (partner 0.2 µM), the relative viability stood at 0.671 with HARA (first compound 0.08 µM); 0.305 with HARA (first compound 0.253 µM); 0.271 in the assay on HARA (first compound 0.8 µM); 0.294 in the assay on HARA (first compound 2.53 µM); 0.156 in the assay on NCI-H1703 (first compound 0.08 µM); 0.137 in the assay on NCI-H1703 (first compound 0.253 µM). Also, the relative viability is 0.138 with NCI-H1703 (first compound 0.8 µM); 0.111 with NCI-H1703 (first compound 2.53 µM); 1.16 in the assay on LXF-289 (first compound 0.08 µM); 1.04 in the assay on LXF-289 (first compound 0.253 µM); 1.1 in the assay with LXF-289 (first compound 0.8 µM); 1.21 in the assay on LXF-289 (first compound 2.53 µM). The relative viability with NCI-H650 (first compound 0.08 µM) turned out to be 1.04; in the assay with NCI-H650 (first compound 0.253 µM) it was 0.809; in the assay on NCI-H650 (first compound 0.8 µM), 1.02; in the assay on NCI-H650 (first compound 2.53 µM), 0.773.
Consider `Oc1nc(-c2ccc(C(F)(F)F)cc2)nc2c1CSCC2` [XAV939] + CC(=O)Nc1cccc(-n2c(=O)n(C3CC3)c(=O)c3c(Nc4ccc(I)cc4F)n(C)c(=O)c(C)c32)c1 [Trametinib] (partner 0.02 µM), for which the relative viability with HARA (first compound 0.08 µM) came out at 0.925; in the assay with HARA (first compound 0.253 µM), 0.531; in the assay on HARA (first compound 0.8 µM), 0.892; in the assay on HARA (first compound 2.53 µM) it was 0.506; in the assay on LXF-289 (first compound 0.08 µM) it was 0.665; in the assay on LXF-289 (first compound 0.253 µM) it was 0.632. The relative viability in the assay on LXF-289 (first compound 0.8 µM) came out at 0.687; in the assay with LXF-289 (first compound 2.53 µM), 0.729; in the assay with NCI-H650 (first compound 0.08 µM), 1.08; in the assay with NCI-H650 (first compound 0.253 µM), 1.05; in the assay on NCI-H650 (first compound 0.8 µM), 1; in the assay with NCI-H650 (first compound 2.53 µM) it was 0.92.
